The results in this text go back to US6197774A, “Pyrimidine derivative” (Otsuka Pharmaceutical Co., Ltd., priority 1997, dated 2001).

Data set [1] deals with formation of IL-8 in cell strain A 549. The data set is described as follows: Activity for inhibiting the formation of IL-8 in vitro (A 549 cells, ELISA). The format is cell-based. The following applies: Homo sapiens, A549, control 100.0, 24 hours, read-out: Ratio of formed amount of IL-8. The protocol: [Evaluation test of activity for inhibiting the formation of IL-8 in vitro]
Pyrimidine derivative obtained in Example 1 was used as test comppound.
(§1) Cell strain A 549 (ATCC) derived from human alveolar epithelium cells was placed on each one of the wells on a microplate having 24-wells so as to put the cells in an amount of 3×10^5 cells/U (well). The cells were incubated for 24 hours in F-12 Nutrient Mixture culture medium (mfd. by GIBCO) to which 10% of equine serum, 100 U/ml of penicillin (mfd. by Dainippon Pharmaceutical Co., Ltd.) and 100 μg/ml of streptomycin (mfd. by Dainippon Pharmaceutical Co., Ltd.) were added.
Next, the equine serum was removed from the culture medium, and the reference culture medium as control was prepared by adding inducers of TNF-α (mfd. by genzyme), IL-1β (mfd. by genzyme) and IFN-γ (mfd. by genzyme) to the culture medium, so as to induce the formation of IL-8.
(§2) On the other hand, the test culture medium, containing the test compound of Example 1 was prepared similarly as in the reference culture medium, except adding the test compound (1×10^-5, 1×10^-6 and 1×10^-7 M) dissolved in dimethyl sulfoxide (DMSO) at the same time of inducers-addition.
(§3) The concentration of IL-8 formed in the supernatant of each one of the culture media after 24-hour incubation was measured by IL-8 ELISA Kit Human (mfd. by genzyme). Further, MTT assay was conducted by the similar method as described in Text Example 2 to determine the index of toxicity for cells.
A general note: An ELISA detects its analyte on a solid surface through an enzyme-linked reagent.

Data set [2] in a line: MTT assay, index of toxicity for A 549 cells. The format is cell-based. The following applies: human, a549 cells, control 100.0, read-out: Ratio of optical absorbance. The method, then: Test was conducted in accordance with the method as described in J. Immunol. Methods, Vol. 94, pp. 57-68, (1986). Cell strain RAW 264.7 derived from the macrophage of mouse was incubated similarly as in the method of Test Example 1(1). After that, MTT reagent (5 mg/ml) in 1/10 amount of the culture medium was added to the cells, and incubated for 4 hours. The supernatant of culture medium was taken off, then the cells were collected by using 1% SDS solution and the optical absorbance at 570-630 nm of the SDS solution was measured.
as §1, §2, §3
For orientation: Tetrazolium dyes change colour on reduction, which living cells bring about.

The next data set addresses T1, 5-lipoxygenase (Rattus norvegicus, UniProt P12527).
T1 construct: Thus obtained supernatant was collected and concentrated so as to obtain crude enzyme containing 5-lipoxygenase; host or cells: rat basophilic leukemia-1 cells
T1 sequence (P12527 1-673): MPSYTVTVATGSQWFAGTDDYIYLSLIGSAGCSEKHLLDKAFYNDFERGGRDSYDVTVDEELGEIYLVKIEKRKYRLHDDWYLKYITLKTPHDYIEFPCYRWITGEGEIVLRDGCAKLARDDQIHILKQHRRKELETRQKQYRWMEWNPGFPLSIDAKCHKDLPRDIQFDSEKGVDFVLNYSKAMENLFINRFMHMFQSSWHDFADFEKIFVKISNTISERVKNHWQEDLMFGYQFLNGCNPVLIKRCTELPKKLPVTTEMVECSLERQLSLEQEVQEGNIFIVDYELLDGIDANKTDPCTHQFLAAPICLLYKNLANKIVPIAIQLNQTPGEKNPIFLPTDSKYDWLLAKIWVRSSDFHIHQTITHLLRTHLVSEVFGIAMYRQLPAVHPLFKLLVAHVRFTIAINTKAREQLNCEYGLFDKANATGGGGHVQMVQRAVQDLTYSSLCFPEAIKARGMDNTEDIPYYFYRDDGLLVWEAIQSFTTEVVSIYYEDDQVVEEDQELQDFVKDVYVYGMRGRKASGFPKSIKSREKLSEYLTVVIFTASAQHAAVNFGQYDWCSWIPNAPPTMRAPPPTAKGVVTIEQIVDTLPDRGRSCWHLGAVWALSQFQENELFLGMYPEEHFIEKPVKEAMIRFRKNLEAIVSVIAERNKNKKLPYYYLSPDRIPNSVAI
The data set is described as follows: Activity for inhibiting 5-lipoxygenase in vitro (crude enzyme from rat basophilic leukemia-1 cells, 5-HETE RIA). The following applies: 8 minutes at 25° C. Format: biochemical. The method, then: [Evaluation test of activity for inhibiting 5-lipoxygenase in vitro]
Pyrimidine derivative obtained in Example 1 was used as test compound.
Test was referred to the methods as described in Proc. Natl. Acad. Sci. U.S.A., Vol. 81, pp. 689-693 (1984) and J. Biol. Chem., Vol. 260, pp. 11554--11559 (1985).
(1) Preparation of Crude Enzyme Containing 5-lipoxygenase
RBI-1 cells (rat basophilic leukemia-1, ATCC, 1×10^8 cells) in 5 ml of buffer solution (50 mM Tris/1 mM EDTA, pH 7.4) were lysed with nitrogen cavitation bomb (mfd. by PARR Instrument Company) under 750 psi for 20 min at 4° C. The solution were centrifuged with twice volume of 50 mM Tris/1 mM EDTA (pH 7.4) at 5000 rpm for 10 minutes at 4° C. The supernatant of the solution was taken and further centrifuged at 37,500 rpm for 90 minutes at 4° C. Thus obtained supernatant was collected and concentrated so as to obtain crude enzyme containing 5-lipoxygenase. Its protein concentration was determined with Protein assey kit (mfd. by Pierce).
(2) Evaluation of Activity for Inhibiting 5-lipoxygenase (RIA assay)
12.5 μl of Crude enzyme, 61.5 μl of 50 mM Tris-HCl (mfd. by Sigma Chemical Co.), 12.5 μl of 0.5 mM ATP (mfd. by Sigma Chemical Co.), and 12.5 μl of cofacter solution (50 mM Tris-HCl (pH 7.2, at 25° C.) containing 10 mM glutahion, 14 mM of indomethacin and 500 mM of CaCl2.2H2 O) were preincubated for […] at 25° C. for reference solution as control. On the other hand, the test solution containing the test compound of Example 1 was prepared similarly as in the reference solution, except adding 1 μl of the test compound (1×10^-4, 1×10^-5, and 1×10^-6 M).
25 μl of 0.07 mM Arachidonic acid (mfd. by Sigma Chemical Co.) was added each of the reference solution and test solutin to intiate the reaction, and incubated it for 8 minutes at 25° C. The reaction was terminated by adding 40 μl of citric acid (mfd. by Sigma Chemical Co.). […]
RIA assay was conducted by the 5-HETE [^3 H] […] RIA assay to determine the amount of 5-lipoxygenase by counting radioactivity on the liquid scintillation counter (mfd. by Beckman Co.). […]

`COCc1cc(=O)n2ncc(-c3ccc(Sc4ccccc4)cc3)c2[nH]1` [Example 1, 4,7-dihydro-5-methoxymethyl-7-oxo-3-(4-phenylthiophenyl)pyrazolo[1,5-a]pyrimidine]: the activity at 10 µM in data set [1] (1 × 10^-5 M) came to 13.4%. Further, the activity at 1 µM in data set [1] (1 × 10^-6 M) came out at 52.6%. Further, the activity at 0.1 µM in data set [1] (1 × 10^-7 M) was 64.5%. In data set [2] (1 × 10^-5 M), the viability at 24 h, 10 µM amounted to 126%. In addition, the viability at 24 h, 1 µM in data set [2] (1 × 10^-6 M) worked out at 98.1%. For the same compound, the viability at 24 h, 0.1 µM in data set [2] (1 × 10^-7 M) turned out to be 108%. Besides, the inhibition (usually the change of the read-out against control, counted positive when it falls) at 100 µM against 5-lipoxygenase (1 × 10^-4 M) was found to be 24.3%. 10 µM produced 38.8% inhibition against 5-lipoxygenase (1 × 10^-5 M). This compound also showed an inhibition at 1 µM at 5-lipoxygenase (1 × 10^-6 M) of 68%.
